Patent US12115152B2, “Pan-RAF kinase inhibitor and use thereof” (HEFEI INSTITUTES OF PHYSICAL SCIENCE, CHINESE ACADEMY OF …, priority 2019, dated 2024)
Where “and” joins values, the source holds several entries; their conditions need not be identical. Equal entries are not always repeated. Where two headings read alike, the source gives them in different places.

Assay: Pharmacokinetic parameters in rats
Assay type: in vivo, SD rats
Conditions: rat
Protocol: In the example, SD rats (180-220 g, male) (purchased from Experimental Animal Center of Anhui Medical University, China) were used. The animals were kept in cages ventilated independently with 6 rats per cage. The feeding was performed at a temperature of 20˜26° C. and a humidity of 35-75%. The light condition was 12 hours of lighting/12 hours of darkness. The corncob bedding was refreshed once a week. The rats were fed with foods and drinking water on an ad libitum basis. The rats were marked with a number on the tails. During the experiment, the breeding and use of animals strictly follow the regulations of Association for Assessment and Accreditation of Laboratory Animal Care International.
Solutions of Compound 16 and Comparative Compound 1 were prepared as follows. 10 mg of the compound to be tested was precisely weighed into a sterile vial, and was dissolved with a small amount of DMSO, and then was made to a constant volume of 5 ml with 5% glucose solution, to give a gavage test solution at a concentration of 2 mg/mL. 0.5 ml of the above gavage test solution at a concentration of 2 mg/mL was precisely taken, and was made to constant volume of 5 ml with 4.5 ml of 5% glucose solution, to give an intravenous injection test solution at a concentration of 0.2 mg/mL. The solution was prepared immediately before being used in the experiment.
6 SD rats were randomly divided into two groups, and the synthesized compounds were administered by gavage and tail vein injection, respectively. About 0.3 mL of blood samples were collected from the retro-orbital venous plexus at 0 h before administration and at 5 min, 15 min, 30 min, 1 h, 1.5 h, 2 h, 4 h, 6 h, 9 h, 12 h, 24 h after administration for the gavage group; and at 0 h before administration and at 2 min, 5 min, 15 min, 30 min, 1 h, 2 h, 4 h, 6 h, 9 h, and 12 h after administration for the tail vein group. Each of the collected blood samples was put in a 1.5 mL centrifuge tube with heparin (Sigma, USA). The sample was centrifuged at 6000 rpm for 3 min to separate the plasma. 100 μL of plasma in the upper layer was placed into a new 1.5 mL centrifuge tube, and stored at −80° C. for determination. 10 mg of a standard for the compound to be tested was precisely weighed into a 10 mL volumetric flask, and was dissolved by adding methanol to make a constant volume and mixed uniformly, to give a 1 mg/mL stock solution. The stock solution was then diluted gradually with methanol to give a series of working solutions at concentrations of 0.01, 0.02, 0.05, 0.1, 0.2, 0.5, 1, 2, 5, 10, 20 μg/mL. The working solutions were placed in a refrigerator at 4° C. for later use. 11 centrifuge tubes were used. 10 μL of the above working solutions was respectively added to each of the centrifuge tubes, and then 90 μL of blank rat plasma was respectively added therein. The mixtures were mixed uniformly, so that the concentration of the compound in the rat plasma was 1, 2, 5, 10, 20, 50, 100, 200, 500, 1000, 2000 ng/mL. Then, 20 μL of a solution of caffeine as the internal standard (200 ng/mL) (National Institutes for Food and Drug Control, China) was added therein, and the resultant mixtures were vortexed for 10 s. Next, 400 μL of methanol was added. The resultant mixtures were vortexed for 10 min, and centrifuged at 16000 rpm for 5 min. Thereafter, 70 μL of the supernatant was placed into the inserted pipe of a sampling bottle. 5 μL of the sample was introduced for a LC-MS/MS analysis. A standard curve of the compound in the rat plasma was obtained by means of a linear regression performed by taking the ratio of the peak area of the sample to that of the internal standard As/Ais as the vertical ordinate, taking the concentration C (μg/mL) as the horizontal ordinate, and taking 1/C^2 was taken as a weighting coefficient.
To 100 μL of the rat plasma to be tested stored at −80° C., 20 μL of a caffeine solution (200 ng/mL) as the internal standard was added. The resultant mixture was vortexed for 10 s. […]

[1] = male, Sprague-Dawley, plasma, iv, 1 mg/kg, intravenous injection 1 mg/kg, average n=3
[2] = male, Sprague-Dawley, plasma, iv, 1 mg/kg, intravenous injection 1 mg/kg, individual rats #1-#3
[3] = intravenous injection 1 mg/kg, average n=3
[4] = intravenous injection 1 mg/kg, individual rats #1-#3, listed as Comparative Compound 1, 1 mg/kg
[5] = oral administration (gavage) 10 mg/kg, average n=3
[6] = oral administration (gavage) 10 mg/kg, individual rats #1-#3, listed as Comparative Compound 1, 10 mg/kg

Work on `Cc1ccc(NC(=O)c2cccc(C(F)(F)F)c2)cc1-n1cc(-c2cccnc2)cn1` [compound 1, 3-trifluoromethyl-N-(4-methyl-3-(4-(pyrid-3-yl)-1H-pyrazol-1-yl)phenyl)benzamide, reference compound] yielded an AUC(0-inf) (male, SD, plasma, po, 10 mg/kg, oral administration (gavage) 10 mg/kg, average n=3) of 1020 ng·h/mL, a Tmax (male, SD, plasma, po, 10 mg/kg, oral administration (gavage) 10 mg/kg, average n=3, read-out: Tmax) of 30 min and a half-life (male, SD, plasma, po, 10 mg/kg, oral administration (gavage) 10 mg/kg, average n=3, read-out: T½ (converted)) of 54.4 min. For the same compound, the Tmax (male, SD, plasma, po, 10 mg/kg, oral administration (gavage) 10 mg/kg, individual rats #1-#3, read-out: Tmax) was 30 min, the half-life (male, SD, plasma, po, 10 mg/kg, oral administration (gavage) 10 mg/kg, individual rats #1-#3, read-out: T½ (converted)) was 60.2 min and the AUC(0-inf) [1] was 92.5 ng·h/mL. It also gave a clearance [1] of 188 mL/min/kg, an AUC0-t (male, Sprague-Dawley, plasma, iv, 1 mg/kg, intravenous injection 1 mg/kg, average n=3, read-out: AUC0-t) of 91.6 ng·h/mL and a C0 (male, Sprague-Dawley, plasma, iv, 1 mg/kg, intravenous injection 1 mg/kg, average n=3, read-out: C0) of 348 ng/mL. For the same compound, the Cmax (male, Sprague-Dawley, plasma, iv, 1 mg/kg, intravenous injection 1 mg/kg, average n=3, read-out: Cmax) was 262 ng/mL, the MRT last (male, Sprague-Dawley, plasma, iv, 1 mg/kg, intravenous injection 1 mg/kg, average n=3, read-out: MRT0-t) was 34 min and the MRT inf (male, Sprague-Dawley, plasma, iv, 1 mg/kg, intravenous injection 1 mg/kg, average n=3, read-out: MRT0-∞) was 37 min. For the same compound, the Tmax (male, Sprague-Dawley, plasma, iv, 1 mg/kg, intravenous injection 1 mg/kg, average n=3, read-out: Tmax) was 1.98 min, the half-life (male, Sprague-Dawley, plasma, iv, 1 mg/kg, intravenous injection 1 mg/kg, average n=3, read-out: T½ (converted)) was 42.9 min and the Vd (male, Sprague-Dawley, plasma, iv, 1 mg/kg, intravenous injection 1 mg/kg, average n=3, read-out: Vz) was 12 L/kg. The AUC(0-inf) [2] was 84 ng·h/mL, the clearance [2] was 198 mL/min/kg and the AUC0-t (male, Sprague-Dawley, plasma, iv, 1 mg/kg, intravenous injection 1 mg/kg, individual rats #1-#3, read-out: AUC0-t) was 83.3 ng·h/mL. For the same compound, the C0 (male, Sprague-Dawley, plasma, iv, 1 mg/kg, intravenous injection 1 mg/kg, individual rats #1-#3, read-out: C0) was 260 ng/mL, the Cmax (male, Sprague-Dawley, plasma, iv, 1 mg/kg, intravenous injection 1 mg/kg, individual rats #1-#3, read-out: Cmax) was 200 ng/mL and the MRT last (male, Sprague-Dawley, plasma, iv, 1 mg/kg, intravenous injection 1 mg/kg, individual rats #1-#3, read-out: MRT0-t) was 36.3 min. It also gave an MRT inf (male, Sprague-Dawley, plasma, iv, 1 mg/kg, intravenous injection 1 mg/kg, individual rats #1-#3, read-out: MRT0-∞) of 38.5 min, a Tmax (male, Sprague-Dawley, plasma, iv, 1 mg/kg, intravenous injection 1 mg/kg, individual rats #1-#3, read-out: Tmax) of 1.98 min and a half-life (male, Sprague-Dawley, plasma, iv, 1 mg/kg, intravenous injection 1 mg/kg, individual rats #1-#3, read-out: T½ (converted)) of 38.8 min. It also gave a bioavailability (male, Sprague-Dawley, plasma, oral, 10 mg/kg, oral administration (gavage) 10 mg/kg vs intravenous 1 mg/kg, average n=3, read-out: F (oral bioavailability)) of 111%, an AUC0-t (male, Sprague-Dawley, plasma, po, 10 mg/kg, oral administration (gavage) 10 mg/kg, average n=3, read-out: AUC0-t) of 1010 ng·h/mL and a Cmax (male, Sprague-Dawley, plasma, po, 10 mg/kg, oral administration (gavage) 10 mg/kg, average n=3, read-out: Cmax) of 576 ng/mL. The MRT last (male, Sprague-Dawley, plasma, po, 10 mg/kg, oral administration (gavage) 10 mg/kg, average n=3, read-out: MRT0-t) was 93.7 min, the MRT inf (male, Sprague-Dawley, plasma, po, 10 mg/kg, oral administration (gavage) 10 mg/kg, average n=3, read-out: MRT0-∞) was 98.5 min and the MRT last (male, Sprague-Dawley, plasma, po, 10 mg/kg, oral administration (gavage) 10 mg/kg, individual rats #1-#3, read-out: MRT0-t) was 109 min. For the same compound, the MRT inf (male, Sprague-Dawley, plasma, po, 10 mg/kg, oral administration (gavage) 10 mg/kg, individual rats #1-#3, read-out: MRT0-∞) was 115 min, the AUMC0-t [3] was 53.50 hr*hr*ng/ml and the “AUMC0-∞” value [3] was 58.31 hr*hr*ng/ml. The AUC0-t [4] was 71.86 ng·h/mL and 119.59 ng·h/mL, the “AUC0-∞” value [4] was 73.08 ng·h/mL and 120.51 ng·h/mL and the AUMC0-t [4] was 50.39 hr*hr*ng/ml and 31.52 hr*hr*ng/ml and 78.58 hr*hr*ng/ml. The “AUMC0-∞” value [4] was 53.89 hr*hr*ng/ml and 37.99 hr*hr*ng/ml and 83.06 hr*hr*ng/ml, the C0 [4] was 402.4 ng/mL and 380.8 ng/mL and the Cl [4] was 228.07 mL/min/kg and 138.3 mL/min/kg. For the same compound, the Cmax [4] was 285.0 ng/mL and 300.0 ng/mL, the MRT0-t [4] was 26.3 min and 39.4 min and the “MRT0-∞” value [4] was 31.2 min and 41.3 min. For the same compound, the T½ [4] was 54.4 min and 35.5 min, the Vz [4] was 11.101 L/kg and 17.886 L/kg and 7.085 L/kg and the “F (oral bioavailability)” value (oral administration (gavage) 10 mg/kg vs intravenous 1 mg/kg, individual rats #1-#3, listed as Comparative Compound 1) was 31.2% and 133.6% and 167.2%. For the same compound, the AUMC0-t [5] was 1474 hr*hr*ng/ml, the “AUMC0-∞” value [5] was 1566 hr*hr*ng/ml and the Cl [5] was 273.12 mL/min/kg. For the same compound, the Vz [5] was 22.672 L/kg, the AUC0-t [6] was 285.6 ng·h/mL and 1217 ng·h/mL and 1532 ng·h/mL and the “AUC0-∞” value [6] was 289.0 ng·h/mL and 1236 ng·h/mL and 1547 ng·h/mL. For the same compound, the AUMC0-t [6] was 518.7 hr*hr*ng/ml and 1889 hr*hr*ng/ml and 2013 hr*hr*ng/ml, the “AUMC0-∞” value [6] was 554.4 hr*hr*ng/ml and 2023 hr*hr*ng/ml and 2121 hr*hr*ng/ml and the Cl [6] was 576.77 mL/min/kg and 134.8 mL/min/kg and 107.8 mL/min/kg. For the same compound, the Cmax [6] was 138 ng/mL and 579 ng/mL and 1010 ng/mL, the MRT0-t [6] was 93.12 min and 78.84 min and the “MRT0-∞” value [6] was 98.22 min and 82.26 min. For the same compound, the T½ [6] was 49.3 min and 53.6 min and the Vz [6] was 50.104 L/kg and 9.579 L/kg and 8.334 L/kg.
